These results are taken from patent US10420772B2, “Animal and human anti-trypanosomonal and anti-leishmania agents” (Celgene Corporation, priority 2016, dated 2019).

For experiment [1], the system named is IL3000 T. congolense (drug sensitive) strain. The experiment is described as follows: In vitro Alamar Blue 72 hrs drug sensitivity assay for T. congolense. In kind it is cell-based. Particulars: Trypanosoma congolense, IL3000 T. congolense bloodstream form, read-out: T. congo Act. How it is done: In Vitro Alamar Blue 72 Hrs Drug Sensitivity Assay for T. Congolense. Compounds were tested in vitro for chemotherapeutic efficacy against the IL3000 T. congolense (drug sensitive) strain using an Alamar Blue assay. Test compounds were prepared as 10 mg/mL DMSO stocks for each assay run. Compounds were assayed in at least three separate, independent test runs and an 11-point dilution curve was used to determine the IC50 values. Bloodstream form trypanosomes were supported in HMI media containing 20% bovine serum and were incubated with test compounds for 69 hrs at 34° C. in a humidified atmosphere containing 5% CO2. Thereafter, 10 μL of Resazurin dye (12.5 mg in 100 mL of phosphate buffered saline, Sigma-Aldrich, Buchs, Switzerland) were added for an additional 3 hrs. Plates were then read using a fluorescent plate reader (Spectramax, Gemini XS, Bucher Biotec, Basel, Switzerland) using an excitation wavelength of 536 nm and an emission wavelength of 588 nm. Data points were averaged to generate sigmoidal dose-response curves and IC50 values were determined using Softmax Pro 5.2 software.
For orientation: Alamar Blue is a resazurin reagent that responds to reducing activity.

In experiment [2] the test system is STIB 719/ILRAD 560 T. vivax (drug sensitive) strain. The experiment is described as follows: Ex vivo Alamar Blue 48 hrs drug sensitivity assay for T. vivax. In kind it is cell-based. As to conditions: Trypanosoma vivax, STIB719; STIB 719/ILRAD 560 T. vivax bloodstream form, ex vivo, Alamar Blue, 48 hrs; read-out: T. vivax Act. How it is done:
Ex vivo Alamar Blue48 hrs drug sensitivity assay for T. vivax. Compounds were tested ex vivo for chemotherapeutic efficacy against the STIB 719/ILRAD 560 T. vivax (drug sensitive) strain, using an Alamar Blue assay. Test compounds were prepared as 10 mg/mL DMSO stocks for each assay run. Compounds were assayed in at least three separate, independent test runs and an 11-point dilution curve was used to determine the IC50 values. Bloodstream form trypanosomes were propagated and harvested from a highly parasitaemic mouse (via cardiac puncture) and were incubated with test compounds for 45 hrs at 37° C. in a humidified atmosphere containing 5% CO2, supported in HMI media containing 20% bovine serum. Thereafter, 10 μL of Resazurin dye (12.5 mg in 100 mL of phosphate buffered saline, Sigma-Aldrich, Buchs, Switzerland) were added for an additional 3 hrs. Plates were then read using a fluorescent plate reader (Spectramax, Gemini XS, Bucher Biotec, Basel, Switzerland) using an excitation wavelength of 536 nm and an emission wavelength of 588 nm. Data points were averaged to generate sigmoidal dose-response curves and IC50 values were determined using Softmax Pro 5.2 software.

With `NCC1CCC(n2c(Nc3cc(C(F)(F)F)ccc3F)nc3cnc(N4CCCC4)nc32)CC1` (centres unmarked) [B-15, 9-((1s,4s)-4-(aminomethyl)cyclohexyl)-N-(2-fluoro-5-(trifluoromethyl)phenyl)-2-(pyrrolidin-1-yl)-9H-purin-8-amine], the IC50 is 150 to 350 nM in experiment [1] and less than 150 nM in experiment [2].
In the same order, the values of `CC1(Nc2ncc3nc(Nc4cccc(Cl)c4)n([C@H]4CC[C@H](CO)CC4)c3n2)CCOCC1` [A-26, ((1r,4r)-4-(8-(3-chlorophenylamino)-2-(4-methyltetrahydro-2H-pyran-4-ylamino)-9H-purin-9-yl)cyclohexyl)methanol] are 150 to 350 nM and less than 150 nM.
With `CC1(Nc2ncc3nc(Nc4cc(C(F)(F)F)ccc4F)n(C4CCC(CN)CC4)c3n2)CCC1` (centres unmarked) [A-61, 9-((1s,4s)-4-(aminomethyl)cyclohexyl)-N8-(2-fluoro-5-(trifluoromethyl)phenyl)-N2-(1-methylcyclobutyl)-9H-purine-2,8-diamine], the figures for the IC50 in experiment [1] and in experiment [2] were 150 to 350 nM and less than 150 nM, respectively.
In the same order, the values of `CN(C)CC1CCC(n2c(Nc3cccc(Cl)c3F)nc3cnc(NC(C)(C)C)nc32)CC1` (centres unmarked) [A-60, N2-tert-butyl-N8-(3-chloro-2-fluorophenyl)-9-((1s,4s)-4-((dimethylamino)methyl)cyclohexyl)-9H-purine-2,8-diamine] are less than 150 nM and less than 150 nM.
In the same order, the values of `CC(C)(C)Nc1ncc2nc(Nc3cccc(C(F)(F)F)c3)n([C@H]3CC[C@@H](CN)CC3)c2n1` [A-15, 9-((1s,4s)-4-(aminomethyl)cyclohexyl)-N2-tert-butyl-N8-(3-(trifluoromethyl)phenyl)-9H-purine-2,8-diamine] are less than 150 nM and less than 150 nM.
Consider `CC1(Nc2ncc3nc(Nc4ccc(C(F)(F)F)cc4)n(C4CCC(CN)CC4)c3n2)CCCC1` (centres unmarked) [A-16, 9-((1s,4s)-4-(aminomethyl)cyclohexyl)-N2-(1-methylcyclopentyl)-N8-(4-(trifluoromethyl)phenyl)-9H-purine-2,8-diamine], for which the IC50 in experiment [1] and in experiment [2] was 350 to 500 nM throughout.
Regarding `NC[C@H]1CC[C@@H](n2c(Nc3cccc(Cl)c3)nc3cnc(NC4CCOCC4)nc32)CC1` [B-1, 9-((1s,4s)-4-(aminomethyl)cyclohexyl)-N8-(3-chlorophenyl)-N2-(tetrahydro-2H-pyran-4-yl)-9H-purine-2,8-diamine], the values for the IC50 in experiment [1] and in experiment [2] were 150 to 350 nM and 350 to 500 nM, respectively.
The like results for `CC1(Nc2ncc3nc(Nc4cc(C(F)(F)F)ccc4F)n([C@H]4CC[C@@H](CN)CC4)c3n2)CCOCC1` [A-42, 9-((1s,4s)-4-(aminomethyl)cyclohexyl)-N8-(2-fluoro-5-(trifluoromethyl)phenyl)-N2-(4-methyltetrahydro-2H-pyran-4-yl)-9H-purine-2,8-diamine] were, in that order, less than 150 nM and less than 150 nM.
As for `CC1(Nc2ncc3nc(Nc4cccc(Cl)c4)n([C@H]4CC[C@@H](CN)CC4)c3n2)CCC1` [A-2, 9-((1s,4s)-4-(aminomethyl)cyclohexyl)-N8-(3-chlorophenyl)-N2-(1-methylcyclobutyl)-9H-purine-2,8-diamine], the IC50 in experiment [1] and in experiment [2] was less than 150 nM throughout.
For the compound `NCC1CCC(n2c(Nc3cc(Cl)ccc3F)nc3cnc(NC4CCOCC4)nc32)CC1` (centres unmarked) [B-17, 9-((1s,4s)-4-(aminomethyl)cyclohexyl)-N8-(5-chloro-2-fluorophenyl)-N2-(tetrahydro-2H-pyran-4-yl)-9H-purine-2,8-diamine], the IC50 in experiment [1] and in experiment [2] was less than 150 nM each time.
On to `OCC1CCC(n2c(Nc3cccc(Cl)c3)nc3cnc(NC4CCOCC4)nc32)CC1` (centres unmarked) [B-6, ((1s,4s)-4-(8-(3-chlorophenylamino)-2-(tetrahydro-2H-pyran-4-ylamino)-9H-purin-9-yl)cyclohexyl)methanol], for which the IC50 in experiment [1] and in experiment [2] was 350 to 500 nM each time.
For the compound `CC1(Nc2ncc3nc(Nc4cccc(F)c4F)n(C4CCC(CN)CC4)c3n2)CCOCC1` (centres unmarked) [A-9, 9-((1s,4s)-4-(aminomethyl)cyclohexyl)-N8-(2,3-difluorophenyl)-N2-(4-methyltetrahydro-2H-pyran-4-yl)-9H-purine-2,8-diamine], the IC50 in experiment [1] and in experiment [2] was less than 150 nM in each case.
For `CC(C)(C)Nc1ncc2nc(Nc3ccc(C(F)(F)F)cc3)n([C@H]3CC[C@@H](CN)CC3)c2n1` [A-22, 9-((1s,4s)-4-(aminomethyl)cyclohexyl)-N2-tert-butyl-N8-(4-(trifluoromethyl)phenyl)-9H-purine-2,8-diamine], the IC50 fell in the range of 150 to 350 nM in experiment [1] and 350 to 500 nM in experiment [2].
In the same order, the values of `CC1(Nc2ncc3nc(Nc4cccc(C(F)(F)F)c4)n(C4CCC(C#N)CC4)c3n2)CCOCC1` (centres unmarked) [A-24, (1s,4s)-4-(2-(4-methyltetrahydro-2H-pyran-4-ylamino)-8-(3-(trifluoromethyl)phenylamino)-9H-purin-9-yl)cyclohexanecarbonitrile] are 150 to 350 nM and 150 to 350 nM.
For the compound `CC1(C)CC(Nc2ncc3nc(Nc4cccc(Cl)c4)n([C@H]4CC[C@@H](CN)CC4)c3n2)CCO1` (some centres unmarked) [B-8, 9-((1s,4s)-4-(aminomethyl)cyclohexyl)-N8-(3-chlorophenyl)-N2-(2,2-dimethyltetrahydro-2H-pyran-4-yl)-9H-purine-2,8-diamine], the IC50 in experiment [1] is 150 to 350 nM; in experiment [2], less than 150 nM.
Take `Cc1ccc(Nc2nc3cnc(NC(C)(C)C)nc3n2C2CCC(CN)CC2)cc1` (centres unmarked) [A-18, 9-((1r,4r)-4-(aminomethyl)cyclohexyl)-N2-tert-butyl-N8-p-tolyl-9H-purine-2,8-diamine]: the IC50 is 350 to 500 nM in experiment [1] and 150 to 350 nM in experiment [2].
With `CC(=O)NC1CCC(n2c(Nc3cccc(Cl)c3)nc3cnc(NC4(C)CCOCC4)nc32)CC1` (centres unmarked) [A-25, N-((1s,4s)-4-(8-(3-chlorophenylamino)-2-(4-methyltetrahydro-2H-pyran-4-ylamino)-9H-purin-9-yl)cyclohexyl)acetamide], the figures for the IC50 in experiment [1] and in experiment [2] were 350 to 500 nM and less than 150 nM, respectively.
In the same order, the values of `CC1(Nc2ncc3nc(Nc4ccccn4)n(C4CCC(CN)CC4)c3n2)CCOCC1` (centres unmarked) [A-8, 9-((1s,4s)-4-(aminomethyl)cyclohexyl)-N2-(4-methyltetrahydro-2H-pyran-4-yl)-N8-(pyridin-2-yl)-9H-purine-2,8-diamine] are 350 to 500 nM and 150 to 350 nM.
The like results for `CC(C)(C)Nc1ncc2nc(Nc3cccc(C#N)c3)n(C3CCC(N)CC3)c2n1` (centres unmarked) [A-52, 3-(9-((1r,4r)-4-aminocyclohexyl)-2-(tert-butylamino)-9H-purin-8-ylamino)benzonitrile] were, in that order, 350 to 500 nM and less than 150 nM.
As for `CCC(C)(C)Nc1ncc2nc(Nc3cccc(Cl)c3)n([C@H]3CC[C@@H](CN)CC3)c2n1` [A-3, 9-((1s,4s)-4-(aminomethyl)cyclohexyl)-N8-(3-chlorophenyl)-N2-tert-pentyl-9H-purine-2,8-diamine], the IC50 in experiment [1] and in experiment [2] was less than 150 nM each time.
`CC1(Nc2ncc3nc(Nc4cccc(Cl)c4)n([C@H]4CC[C@@H](CO)CC4)c3n2)CCOCC1` [A-19, ((1s,4s)-4-(8-(3-chlorophenylamino)-2-(4-methyltetrahydro-2H-pyran-4-ylamino)-9H-purin-9-yl)cyclohexyl)methanol]: the IC50 in experiment [1] lay in the range of 350 to 500 nM; in experiment [2], 150 to 350 nM.
Regarding `CC1(Nc2ncc3nc(Nc4cccc(Cl)c4)n(-c4ccc(CN)cc4)c3n2)CCOCC1` [A-32, 9-(4-(aminomethyl)phenyl)-N8-(3-chlorophenyl)-N2-(4-methyltetrahydro-2H-pyran-4-yl)-9H-purine-2,8-diamine], the IC50 was 150 to 350 nM in experiment [1] and less than 150 nM in experiment [2].
With `COC(=O)NC[C@H]1CC[C@@H](n2c(Nc3cccc(Cl)c3)nc3cnc(NC4(C)CCOCC4)nc32)CC1` [A-14, methyl ((1s,4s)-4-(8-(3-chlorophenylamino)-2-(4-methyltetrahydro-2H-pyran-4-ylamino)-9H-purin-9-yl)cyclohexyl)methylcarbamate], the IC50 in experiment [1] was 150 to 350 nM; in experiment [2], 350 to 500 nM.
For `CN(C)c1ncc2nc(Nc3cccc(Cl)c3)n(C3CCC(CN)CC3)c2n1` (centres unmarked) [B-7, 9-((1s,4s)-4-(aminomethyl)cyclohexyl)-N8-(3-chlorophenyl)-N2,N2-dimethyl-9H-purine-2,8-diamine], the figures for the IC50 in experiment [1] and in experiment [2] were 350 to 500 nM and less than 150 nM, respectively.
The like results for `CC1(Nc2ncc3nc(Nc4ccc(C(F)(F)F)cc4)n([C@H]4CC[C@@H](CN)CC4)c3n2)CCOCC1` [A-31, 9-((1s,4s)-4-(aminomethyl)cyclohexyl)-N2-(4-methyltetrahydro-2H-pyran-4-yl)-N8-(4-(trifluoromethyl)phenyl)-9H-purine-2,8-diamine] were, in that order, 150 to 350 nM and less than 150 nM.
